Test results as given in patent US20090068125A1, “TREATMENT FOR MUCOSITIS” (HEPTAGEN LTD, priority 2005, published 2009).

Experiments:
[1] = tested on: human epidermal keratinocytes (HEK); experiment: Inhibition of human epidermal keratinocyte proliferation (AlamarBlue reduction); type: cell-based; settings: two typical experiments (FIG. 1), 0.1 to 100 microM adenosine, 2 days incubation, AlamarBlue fluorescence
Excerpt: Cryopreserved human epidermal keratinocytes (HEK) isolated from skin were obtained from TCS Cellworks, Botolph Claydon, Buckingham, MK18 2LR, UK. Cells were maintained in EpiLife, a defined basal medium designed for human keratinocytes supplemented with selected hormones and growth factors (TCS Cellworks). […] Proliferating cultures were trypsinised, harvested, treated with a trypsin inhibitor and resuspended in growth medium. The viable cells were counted then replated into 24 or 96 well cell culture plates at a density of approximately 2,500 cells/cm2. Cells were incubated overnight at 37° C. at 5% CO2 to allow recovery, the spent medium aspirated from the wells and replaced with fresh growth medium in the presence or absence of adenosine. Adenosine was obtained from Sigma-Aldrich and made up as a 10 mM stock solution in DMSO. Serial dilutions were made in the growth medium and added to the cells to give final concentrations ranging from 0.1 to 100 microM, and the cells returned to the incubator for 2 days. AlamarBlue 2% v/v was added to the wells and reduction measured fluorometrically using a Molecular Dynamics BioLumin 9600 microtitre plate reader using excitation wavelength at 530 nm and […] wavelength at 590 nm. Control experiments in which compounds were not added were carried out to examine the normal time-scale of proliferation. […]

[2] = cited from earlier work

Nc1ncnc2c1ncn2[C@@H]1O[C@H](CO)[C@@H](O)[C@H]1O [Adenosine]
EC50 ([1]; Homo sapiens, Keratinocyte, 48 h): 1.7 µM | EC50 [1]: 1.1 µM | half-life in the circulation [2]: < 10 s
